From PubChem BioAssay AID1996
Values after ≈ are worked out from the molar mass of the structure shown.

Conditions: buffer; pH 7.4; 200.0 µM

Point of comparison: `O=C(Nc1ccccc1Cl)Nc1cccnc1Cl`, solubility kinetic 2.8 µg/mL (≈ 9.92 µM). Against it:
- CC(=O)c1cccc(-n2c(CCC(=O)O)ccc2-c2ccccc2)c1 — higher, > 50 µg/mL
- CCOC(=O)c1c(C)[nH]c(C(=O)OCC(=O)NCc2ccc(C)cc2)c1C — within 1.5-fold, 2.6 µg/mL (≈ 6.98 µM)
- Cc1cc(C)c(-c2c(O)c3cccnc3n(C)c2=O)c(C)c1 — 16-fold higher, 43.4 µg/mL (≈ 147 µM)
- O=C1[C@@H]2CSCN2C(=O)CN1Cc1cccc(C(F)(F)F)c1 — 16-fold higher, 44 µg/mL (≈ 133 µM)
- CCCNC(=O)NC(=O)c1cnccc1C(F)(F)F — 12-fold higher, 34.8 µg/mL (≈ 126 µM)
- Nc1ccccc1-n1cccc1 — 5.2-fold higher, 14.5 µg/mL (≈ 91.7 µM)
- Cc1ccc(O)c(CNc2nc3ccccc3n2C(C)C)c1 — 4.7-fold lower, 0.6 µg/mL (≈ 2.03 µM)
- O=C1C2C3C=CC(CC3)C2C(=O)N1c1ccc(F)cc1 (stereo not given) — 6.4-fold higher, 17.9 µg/mL (≈ 66 µM)
- Cl.O=C(CN1CCCCC1)Nc1cccc(Cl)c1 — 12-fold higher, 33.6 µg/mL
- NC(=O)C1CCN(C(=O)NC(=O)c2ccccc2)CC1 — higher, > 41.3 µg/mL
- O=C1NCCCCC1NS(=O)(=O)c1cccc2ccccc12 (stereo not given) — higher, > 47.8 µg/mL
- N/C(CCS(=O)(=O)c1ccc(Cl)cc1)=N\OC(=O)c1ccc(Cl)cc1 — 2.3-fold lower, 1.2 µg/mL (≈ 2.99 µM)
- CC(C)(C)C(=O)N1CCN(c2ccc([N+](=O)[O-])cc2-n2cccc2)CC1 — 2-fold lower, 1.4 µg/mL (≈ 3.93 µM)
- O=C1CN(C(=O)c2ccc(F)cc2)c2ccccc2N1 — higher, > 40.5 µg/mL
- CN(C)/C=C/C(=O)c1cc(N2CCOCC2)ccc1[N+](=O)[O-] — higher, > 45.8 µg/mL
- CC1CCCC(NC(=O)CCNC(=O)c2ccc([N+](=O)[O-])cc2)C1C (stereo not given) — higher, > 52.1 µg/mL
- O=C(CN1CCN(c2ccccn2)CC1)Nc1ccc(F)cc1F — higher, > 49.9 µg/mL
- CC(=O)Nc1ccc(C(=O)NCC2CCCCC2)cc1 — 13-fold higher, 36.4 µg/mL (≈ 133 µM)
- Cc1cccc(NC(=O)C2CC3CCC2C3)c1C (stereo not given) — 3.8-fold higher, 10.5 µg/mL (≈ 43.1 µM)
- Nc1ccc(Sc2ccccc2)nc1 — higher, > 30.3 µg/mL
- Cc1cccc(Nc2c([N+](=O)[O-])c(=O)oc3ccccc23)c1 — lower, < 0.3 µg/mL
- Cc1sc(NC(=O)Nc2ccccc2)c(C(N)=O)c1C — 1.8-fold higher, 5.1 µg/mL (≈ 17.6 µM)
- CC(=O)Nc1ccccc1 — higher, > 20.3 µg/mL
- Cc1ccccc1NC(=O)c1c([N+](=O)[O-])cnn1C — higher, > 39 µg/mL
- O=C(CCc1nnc(CCC2CCCCC2)o1)NCc1ccon1 — higher, > 49.9 µg/mL
- Brc1c(NC2=NCCN2)ccc2nccnc12 — 4-fold higher, 11.2 µg/mL (≈ 38.3 µM)
- Nc1ncc2c(n1)CCN(c1ccc([N+](=O)[O-])cc1)C2 — 2.1-fold higher, 5.9 µg/mL (≈ 21.7 µM)
- Cc1nccn1CCOc1ccccc1Cl — 12-fold higher, 33.2 µg/mL (≈ 140 µM)
- O=C(COC(=O)Cc1ccc(Br)cc1)NC1CCCC1 — higher, > 51 µg/mL
- O=C(NCCCN1CCOCC1)C(=O)NCCc1ccccc1 — higher, > 47.9 µg/mL
- O=C(NC(=S)Nc1cccnc1)c1ccccc1 — 13-fold higher, 36.1 µg/mL (≈ 140 µM)
- Nc1cc(=O)[nH]c(SCC(=O)Nc2cc(S(=O)(=O)N3CCCCCC3)ccc2Cl)n1 — 1.9-fold higher, 5.4 µg/mL (≈ 11.4 µM)
- Cc1cc2oc(C(=O)NCc3ccccc3)cc(=O)c2cc1C — 3.1-fold lower, 0.9 µg/mL (≈ 2.93 µM)
- Cc1c(C(=O)N2CCCC(C(F)(F)F)C2)oc2ccccc12 (stereo not given) — 11-fold higher, 31.8 µg/mL (≈ 102 µM)
- Cc1cc(C)c2oc(C(=O)NCc3ccccc3)cc(=O)c2c1 — within 1.5-fold, 2.3 µg/mL (≈ 7.48 µM)
- Cc1cccc(C(=O)NCC(C)NC(=O)c2cccc(C)c2)c1 (stereo not given) — 8.5-fold higher, 23.7 µg/mL (≈ 76.4 µM)
- Cn1cncc1COC(=O)c1ccc(Cl)cc1 — higher, > 37.6 µg/mL
- CC1(C)CC(=O)c2sc(NS(=O)(=O)c3ccccc3)nc2C1 — 17-fold higher, 48.9 µg/mL (≈ 145 µM)
- COc1ccc2nc(SCCC(=O)O)cc(C)c2c1 — higher, > 41.6 µg/mL
- O=C(Nc1ccc(Br)cc1)N1CCc2ccccc2C1 — 2.5-fold lower, 1.1 µg/mL (≈ 3.32 µM)
- COc1ccc(N2CCN(S(=O)(=O)c3cn(C)c(=O)n(C)c3=O)CC2)cc1 — 6.4-fold higher, 17.9 µg/mL (≈ 45.4 µM)
- COc1cc2ncnc(NCc3ccc(F)cc3)c2cc1OC — higher, > 47 µg/mL
- CCN(C(=O)COC(=O)c1ccc2c(c1)OCO2)c1ccccc1 — higher, > 49.1 µg/mL
- Cc1ccc(S(=O)(=O)Nc2ncnc3ccccc23)cc1 — higher, > 44.9 µg/mL
- O=C(Cc1nc2ccccc2[nH]1)c1ccc(Cl)cc1 — 8.6-fold higher, 24.2 µg/mL (≈ 89.4 µM)
- O=C(NCc1ncc(C(F)(F)F)cc1Cl)Nc1ccccc1 — within 1.5-fold, 3.1 µg/mL (≈ 9.4 µM)
- CC(C)N(Cc1ccccc1)C(=S)NCc1ccccc1 — 6.9-fold higher, 19.4 µg/mL (≈ 65 µM)
- COc1ccc2nc(Nc3ccccc3OC)sc2c1 — within 1.5-fold, 3.8 µg/mL (≈ 13.3 µM)
- Cc1ccc(C(=O)N2CCCCC2C(=O)O)cc1S(=O)(=O)N1CCCCC1 (stereo not given) — higher, > 59.2 µg/mL
- COc1ccc(-c2nc(C)c(C(C)=O)n2O)cc1[N+](=O)[O-] — 15-fold higher, 42.3 µg/mL (≈ 145 µM)
- C=CC[n+]1cccc(-c2cc3ccc(C)cc3[nH]2)c1.[Br-] — higher, > 49.4 µg/mL
- COc1ccc(/C=C/C(=O)OCC(=O)N(C)CC(=O)Nc2ccc(C)cc2)c(OC)c1 — 1.6-fold higher, 4.4 µg/mL (≈ 10.3 µM)
- CN(CC(=O)NCCc1ccccc1)CC(=O)Nc1cccc(F)c1 — higher, > 51.5 µg/mL
- O=C1CCCCCCCN1Cc1ccccc1 — higher, > 34.7 µg/mL
- NS(=O)(=O)c1ccc(CCNC(=S)NC2CCCC2)cc1 — higher, > 49.1 µg/mL
- O=C(NCCN1CCOCC1)c1cc([N+](=O)[O-])ccc1Cl — higher, > 47.1 µg/mL
- CCN(CC)CCCNC(=O)/C=C/C(=O)O — 11-fold higher, 31.2 µg/mL (≈ 137 µM)
- CN(Cc1nc(-c2cnccn2)no1)Cc1cccc2ccccc12 — 17-fold higher, 48.9 µg/mL (≈ 148 µM)
- COc1ccc(/C=C\c2nc(O)c([N+](=O)[O-])c(=O)[nH]2)cc1O — higher, > 45.8 µg/mL
